Results: the supplement of paper PMC10307832

Columns and labels:
Experiment in all cases: relative viability (nuclei count vs DMSO), 5 days (fraction); higher = more cells survive
KIN001-266 + Foretinib = compound: CCN1CCC(CC1)N2C=C(N=N2)CNC3=CC4=C(C(=CN=C4C(=C3)Cl)C#N)NC5=CC(=C(C=C5)F)Cl [KIN001-266] + COc1cc2c(Oc3ccc(NC(=O)C4(C(=O)Nc5ccc(F)cc5)CC4)cc3F)ccnc2cc1OCCCN1CCOCC1 [Foretinib] (partner 0.25 µM)
In short: (§1)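 Lung cancer cell lines were pin-tool dosed in 1536-well plates on the day after seeding, with either a lone drug or a fixed anchor-drug dose plus five library-drug doses (not always all listed) in √10 steps. Nuclei were counted on 4× images after 5 days. Relative viability is the ratio of treated-well to vehicle-well nuclei counts, with each value a median of duplicate plates.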

KIN001-266 + AZD7762 = compound: CCN1CCC(CC1)N2C=C(N=N2)CNC3=CC4=C(C(=CN=C4C(=C3)Cl)C#N)NC5=CC(=C(C=C5)F)Cl [KIN001-266] + NC(=O)Nc1cc(-c2cccc(F)c2)sc1C(=O)N[C@H]1CCCNC1 [AZD7762] (partner 0.2 µM)
In short: as §1

KIN001-266 + Vorinostat = compound: CCN1CCC(CC1)N2C=C(N=N2)CNC3=CC4=C(C(=CN=C4C(=C3)Cl)C#N)NC5=CC(=C(C=C5)F)Cl [KIN001-266] + O=C(CCCCCCC(=O)Nc1ccccc1)NO [Vorinostat] (partner 1 µM)
In short: as §1

KIN001-266 + Pictilisib = compound: CCN1CCC(CC1)N2C=C(N=N2)CNC3=CC4=C(C(=CN=C4C(=C3)Cl)C#N)NC5=CC(=C(C=C5)F)Cl [KIN001-266] + CS(=O)(=O)N1CCN(Cc2cc3nc(-c4cccc5[nH]ncc45)nc(N4CCOCC4)c3s2)CC1 [Pictilisib] (partner 1 µM)
In short: as §1

| Cell Line | relative viability (KIN001-266 + Foretinib; first compound 0.08 µM) | relative viability (KIN001-266 + Foretinib; first compound 0.253 µM) | relative viability (KIN001-266 + Foretinib; first compound 0.8 µM) | relative viability (KIN001-266 + Foretinib; first compound 2.53 µM) | relative viability (KIN001-266 + Foretinib; first compound 8 µM) | relative viability (KIN001-266 + AZD7762; first compound 0.08 µM) | relative viability (KIN001-266 + AZD7762; first compound 0.253 µM) | relative viability (KIN001-266 + AZD7762; first compound 0.8 µM) | relative viability (KIN001-266 + AZD7762; first compound 2.53 µM) | relative viability (KIN001-266 + AZD7762; first compound 8 µM) | relative viability (KIN001-266 + Vorinostat; first compound 0.08 µM) | relative viability (KIN001-266 + Vorinostat; first compound 0.253 µM) | relative viability (KIN001-266 + Vorinostat; first compound 0.8 µM) | relative viability (KIN001-266 + Vorinostat; first compound 2.53 µM) | relative viability (KIN001-266 + Vorinostat; first compound 8 µM) | relative viability (KIN001-266 + Pictilisib; first compound 0.08 µM) | relative viability (KIN001-266 + Pictilisib; first compound 0.253 µM) | relative viability (KIN001-266 + Pictilisib; first compound 0.8 µM) | relative viability (KIN001-266 + Pictilisib; first compound 2.53 µM) | relative viability (KIN001-266 + Pictilisib; first compound 8 µM) |
| --- | --- | --- | --- | --- | --- | --- | --- | --- | --- | --- | --- | --- | --- | --- | --- | --- | --- | --- | --- | --- |
| HCC-366 | 0.961 | 0.955 | 0.916 | 0.905 | 0.851 | 0.552 | 0.361 | 0.175 | 0.26 | 0.175 | 0.436 | 0.338 | 0.294 | 0.373 | 0.443 | 0.132 | 0.114 | 0.107 | 0.154 | 0.156 |
| NCI-H1975 | 0.972 | 0.96 | 0.966 | 1.05 | 1.04 | 0.733 | 0.689 | 0.776 | 0.756 | 0.678 | 0.693 | 0.688 | 0.716 | 0.707 | 0.604 | 0.316 | 0.308 | 0.304 | 0.294 | 0.326 |
| NCI-H1437 | 1.21 | 1.28 | 1.26 | 1.35 | 1.04 | 1.12 | 1.16 | 1.12 | 1.1 | 0.963 | 0.931 | 0.841 | 0.797 | 0.841 | 0.572 | 0.357 | 0.464 | 0.413 | 0.359 | 0.177 |
| NCI-H1651 | 0.805 | 0.71 | 0.774 | 0.757 | 0.731 | 0.46 | 0.44 | 0.376 | 0.328 | 0.49 | 0.568 | 0.564 | 0.533 | 0.681 | 0.577 | 0.582 | 0.601 | 0.51 | 0.633 | 0.435 |
| LCLC-103H | 0.837 | 0.716 | 0.987 | 0.772 | 0.726 | 0.814 | 0.843 | 0.82 | 0.791 | 0.73 | 0.82 | 0.84 | 0.762 | 0.843 | 0.685 | 0.618 | 0.693 | 0.71 | 0.676 | 0.605 |
| NCI-H1666 | 0.954 | 0.95 | 0.938 | 0.92 | 0.892 | 0.921 | 0.799 | 0.744 | 0.826 | 0.767 | 1.04 | 1.06 | 1.01 | 1.03 | 1 | 0.608 | 0.523 | 0.49 | 0.367 | 0.347 |
| NCI-H1734 | 0.951 | 0.801 | 0.704 | 0.813 | 0.798 | 0.566 | 0.635 | 0.438 | 0.631 | 0.461 | 0.849 | 0.85 | 0.743 | 0.796 | 0.599 | 0.521 | 0.452 | 0.454 | 0.418 | 0.43 |
| EPLC-272H | 0.777 | 0.763 | 0.728 | 0.636 | 0.208 | 0.304 | 0.212 | 0.191 | 0.185 | 0.371 | 0.417 | 0.662 | 0.621 | 0.429 | 0.384 | 0.349 | 0.336 | 0.305 | 0.265 | 0.289 |
| BEN | 0.708 | 0.88 | 0.755 | 0.407 | 0.691 | 0.729 | 0.705 | 0.676 | 0.539 | 0.709 | 0.607 | 0.531 | 0.601 | 0.559 | 0.635 | 0.632 | 0.615 | 0.589 | 0.54 | 0.632 |
| ABC-1 | 1.02 | 1.12 | 1.1 | 1.08 | 0.873 | 0.991 | 0.856 | 0.745 | 0.761 | 0.837 | 1.36 | 1.24 | 1.26 | 1.09 | 0.987 | 0.864 | 0.927 | 0.926 | 0.65 | 0.547 |
| HCC-15 | 0.913 | 0.964 | 0.886 | 0.817 | 0.707 | 1.23 | 1.14 | 1.18 | 0.6 | 1.06 | 0.871 | 0.932 | 0.842 | 0.747 | 0.616 | 0.769 | 0.765 | 0.594 | 0.674 | 0.472 |
| NCI-H2170 | 0.984 | 1.03 | 1.01 | 0.987 | 0.976 | 0.924 | 0.958 | 0.924 | 0.854 | 0.774 | 0.853 | 0.759 | 0.828 | 0.752 | 0.83 | 0.372 | 0.392 | 0.344 | 0.296 | 0.3 |
| PC-3 [JPC-3] | 1.02 | 1.04 | 0.983 | 0.972 | 0.889 | 0.792 | 0.915 | 0.799 | 0.775 | 0.801 | 0.856 | 0.887 | 0.801 | 0.987 | 0.847 | 0.797 | 0.8 | 0.575 | 0.693 | 0.527 |
| NCI-H1993 | 0.86 | 0.777 | 0.758 | 0.749 | 0.675 | 1.06 | 0.815 | 0.673 | 0.827 | 0.624 | 0.959 | 0.604 | 0.685 | 0.713 | 0.471 | 0.872 | 0.691 | 0.967 | 0.837 | 0.976 |
| NCI-H358 | 0.728 | 0.734 | 0.629 | 0.631 | 0.397 | 0.574 | 0.459 | 0.41 | 0.547 | 0.474 | 0.663 | 0.634 | 0.759 | 0.611 | 0.262 | 0.382 | 0.355 | 0.343 | 0.3 | 0.316 |
| NCI-H1915 | 1.14 | 1.06 | 1.07 | 1.13 | 1.11 | 0.703 | 0.729 | 0.687 | 0.729 | 0.727 | 0.499 | 0.484 | 0.534 | 0.509 | 0.544 | 1.03 | 0.949 | 0.947 | 1.05 | 0.781 |
